Measurements reported in the supplement of paper PMC10307832.

What was measured:
Test in all cases: relative viability (nuclei count vs DMSO), 5 days (fraction); higher = more cells survive
[1] = compound: C#Cc1cccc(Nc2ncnc3cc(OCCOC)c(OCCOC)cc23)c1 [Erlotinib] + N=C(N)NC(=N)NCCc1ccccc1 [Phenformin] (partner 250 µM)
How it was run: (§1)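 Lung cancer cell lines in 1536-well plates were dosed by pin tool the day after seeding, either with one drug alone or with a fixed anchor-drug dose plus five library-drug doses (not always all listed) in √10 steps. After 5 days, cells were fixed and their nuclei stained in one step (final 0.05% Triton X-100, 1% formaldehyde, 1 ug/ml Hoechst), then counted on 4× images. Relative viability is the nuclei count in treated wells divided by that in vehicle wells. Values are medians of duplicate plates.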

[2] = compound: C#Cc1cccc(Nc2ncnc3cc(OCCOC)c(OCCOC)cc23)c1 [Erlotinib] + CC(=O)Nc1cccc(-n2c(=O)n(C3CC3)c(=O)c3c(Nc4ccc(I)cc4F)n(C)c(=O)c(C)c32)c1 [Trametinib] (partner 0.02 µM)
How it was run: as §1

[3] = compound: O=C(Nc1c[nH]nc1-c1nc2ccc(CN3CCOCC3)cc2[nH]1)NC1CC1 [AT9283] + O=C(c1cc(Cc2n[nH]c(=O)c3ccccc23)ccc1F)N1CCN(C(=O)C2CC2)CC1 [Olaparib] (partner 8 µM)
How it was run: as §1

[4] = compound: C#Cc1cccc(Nc2ncnc3cc(OCCOC)c(OCCOC)cc23)c1 [Erlotinib] + Cc1nc(Nc2ncc(C(=O)Nc3c(C)cccc3Cl)s2)cc(N2CCN(CCO)CC2)n1 [Dasatinib] (partner 0.075 µM)
How it was run: as §1

[5] = compound: O=C(Nc1c[nH]nc1-c1nc2ccc(CN3CCOCC3)cc2[nH]1)NC1CC1 [AT9283] + C[C@@H](Oc1cc(-c2cnn(C3CCNCC3)c2)cnc1N)c1c(Cl)ccc(F)c1Cl [Crizotinib] (partner 1 µM)
How it was run: as §1

## NCI-H441
[1]; first compound 0.02 µM
  relative viability: 0.883
[1]; first compound 0.2 µM
  relative viability: 0.863
[1]; first compound 0.6325 µM
  relative viability: 0.892
[2]; first compound 0.02 µM
  relative viability: 0.457
[2]; first compound 0.6325 µM
  relative viability: 0.442
[2]; first compound 2 µM
  relative viability: 0.328
[3]; first compound 0.003 µM
  relative viability: 0.557
[3]; first compound 0.03 µM
  relative viability: 0.504
[3]; first compound 0.09487 µM
  relative viability: 0.417
[3]; first compound 0.3 µM
  relative viability: 0.319
[4]; first compound 0.02 µM
  relative viability: 0.651
[4]; first compound 0.2 µM
  relative viability: 0.554
[4]; first compound 0.6325 µM
  relative viability: 0.508
[4]; first compound 2 µM
  relative viability: 0.61
[5]; first compound 0.003 µM
  relative viability: 0.614
[5]; first compound 0.03 µM
  relative viability: 0.635
[5]; first compound 0.09487 µM
  relative viability: 0.35
[5]; first compound 0.3 µM
  relative viability: 0.234
